According to patent publication US20140295547A1, “METHOD TO CONSTRUCT IN-VITRO HUMAN BLOOD BRAIN BARRIER MODEL” (National Chung Cheng University, priority 2013, published 2014):

Tested on: in-vitro human BBB model (HBMECs co-cultured with HBVPs and HAs)
Test: Permeability of propidium iodide across the in-vitro human BBB model
Format: in vitro ADME
Description: The present invention uses HBMECs and different ratios of HBVPs and HAs to construct a BBB model and measures TEER and permeability of propidium iodide (PI) to evaluate the integrity and performance of the BBB model. The present invention also uses a fluorescent dye Calcein to detect the activity of P-gp. The present invention also detects the concentrations of the transforming growth factor-β1 (TGF-β1), the matrix. metalloproteinases (MMP-9), and the vascular endothelial growth factor (VEGF), which influence the integrity of the BBB model.
Refer to FIG. 1 and FIG. 2. […] In Step S10, defrost a plurality of small tubes of frozen cell-containing liquids via placing them in water having a temperature of 37° C. for 1 minute until all the frozen cell-containing liquids completely liquefy and become the suspension liquids of HBVPs, HAs and HBMECs. In Step S12, respectively suck the suspension liquids of HBVPs, HAs and HBMECs from the small tubes, respectively place the suspension liquids in pretreated culture plates, and culture the suspension liquids in a carbon-dioxide incubator having a temperature of 37° C. and a relative humidity of 95%. In Step S14, provide a pretreated culture dish 10 having a filter membrane 12 made of PET (polyethylene terephthalate); flip over the filter membrane 12; attach the suspension liquids of HBVPs and HAs by a ratio of 1:1, 1:2, or 1:6 to the bottom surface of the filter membrane 12 of the culture dish 10 to plant HBVPs 14 and HAs 16 on the bottom surface, wherein the time for attaching is 1 hour and the total planting density of HBVPs 14 and HAs 16 is 4×10^5 cells/cm^2. In Step S16, fill the suspension liquid of HBMECs into the top surface of the filter membrane 12 to plant HBMECs 18 on the top surface, wherein the planting density of HBMECs 18 is 4×10^5 cell/cm^2. […]

Question: Which “PI permeability in comparison with the BBB model with HBVPs:HAs=1:2” value (BBB model with HBVPs:HAs=1:1) does the source give for `CC[N+](C)(CC)CCC[n+]1c(-c2ccccc2)c2cc(N)ccc2c2ccc(N)cc21.[I-].[I-]` [propidium iodide] here?
Answer: The value was “higher”.

Question: And the “PI permeability in comparison with the BBB model with HBVPs:HAs=1:2” value (BBB model with HBVPs:HAs=1:6)?
Answer: The value was “higher”.

Question: What about the “permeability of propidium iodide relative to that of a single layer of the cultured HBMECs” value (HBMECs co-cultured with HBVPs:HAs=1:2, condition medium PCM:ACM 1:1 for 7 days) of the same compound?
Answer: Its value is 39%.
